The target of one experiment is avidin (Gallus gallus, UniProt P02701). The experiment is described as follows: bMR nanosensor competition assay, avidin-biotin. The class given is binding. As to conditions: control study with avidin bMR nanosensors.
For experiment [1], the target named is T1, tetanus toxin C fragment (TTC) (Clostridium tetani, UniProt P04958). The following applies: read-out: KD Reported; cited from earlier work.
Experiment [2] deals with T1, tetanus toxin C fragment (TTC). Briefly: biochemical. The format is binding.
In experiment [3] the target is T2, cholera toxin B subunit (CTB) (Vibrio cholerae serotype O1, UniProt P01556). The experiment is described as follows: biochemical. The format is binding.
Experiment [4] deals with T2, cholera toxin B subunit (CTB). As to conditions: read-out: KD Reported; cited from earlier work.
The target of another experiment is Concanavalin A (Canavalia ensiformis, UniProt P02866). As to conditions: read-out: KD Reported; cited from earlier work.
Another experiment addresses mouse IgG (mouse). Briefly: magnetic relaxation.

We go through nine molecules from paper PMC3461998 (Angewandte Chemie (International ed. in English), 2012).

Like-named read-outs stand apart in the source and are kept apart here.

T1 sequence (P04958 865-1315 limits assumed): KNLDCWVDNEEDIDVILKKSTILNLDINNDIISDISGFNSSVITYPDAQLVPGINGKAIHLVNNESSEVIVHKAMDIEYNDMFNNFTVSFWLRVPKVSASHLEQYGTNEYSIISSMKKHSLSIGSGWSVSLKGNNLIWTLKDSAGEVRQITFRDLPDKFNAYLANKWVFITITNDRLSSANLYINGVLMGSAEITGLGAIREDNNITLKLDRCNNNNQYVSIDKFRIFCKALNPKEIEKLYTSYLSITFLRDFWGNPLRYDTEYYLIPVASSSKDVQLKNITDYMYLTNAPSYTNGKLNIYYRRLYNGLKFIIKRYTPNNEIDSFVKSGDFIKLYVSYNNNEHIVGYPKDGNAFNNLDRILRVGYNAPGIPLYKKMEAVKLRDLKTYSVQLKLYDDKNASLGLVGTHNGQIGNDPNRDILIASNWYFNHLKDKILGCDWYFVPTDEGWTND
T2 sequence (P01556 22-124 limits assumed): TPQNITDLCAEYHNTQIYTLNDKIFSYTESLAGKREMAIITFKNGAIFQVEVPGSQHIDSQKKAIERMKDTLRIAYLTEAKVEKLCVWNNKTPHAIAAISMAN
Chain of avidin (P02701 25-152, species assumed): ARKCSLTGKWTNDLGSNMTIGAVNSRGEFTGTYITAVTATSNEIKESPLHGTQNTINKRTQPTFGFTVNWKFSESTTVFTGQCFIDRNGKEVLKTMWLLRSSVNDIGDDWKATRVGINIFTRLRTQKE

bovine serum albumin: the “changes in magnetic relaxation” value with avidin is “nominal changes”. As to `COc1cccc2c1C(=O)c1c(O)c3c(c(O)c1C2=O)C[C@@](O)(C(=O)CO)C[C@@H]3O[C@H]1C[C@H](N)[C@H](O)[C@H](C)O1` [Doxorubicin, doxorubicin], the dissociation constant Kd – broadly, the free concentration of one partner at which half of the binding sites on the other are occupied at equilibrium, for simple one-to-one binding – in experiment [1] was 9.4 µM; in experiment [2], 4.1 µM. For dextran, the dissociation constant Kd in experiment [3] is 4.9 µM; in experiment [4] it was 14000 µM; on Concanavalin A, 0.09 µM.

For `OC[C@H]1O[C@@H]2O[C@H]3[C@H](O)[C@@H](O)[C@@H](O[C@H]4[C@H](O)[C@@H](O)[C@@H](O[C@H]5[C@H](O)[C@@H](O)[C@@H](O[C@H]6[C@H](O)[C@@H](O)[C@@H](O[C@H]7[C@H](O)[C@@H](O)[C@@H](O[C@H]8[C@H](O)[C@@H](O)[C@@H](O[C@H]1[C@H](O)[C@H]2O)O[C@@H]8CO)O[C@@H]7CO)O[C@@H]6CO)O[C@@H]5CO)O[C@@H]4CO)O[C@@H]3CO` [β-Cyclodextrin, β-cyclodextrin], in experiment [3], binding was characterised by a dissociation constant (Kd) of 3.6 µM. Take “Protein G (from UniProt P06654 34-417) (natural protein)”: the dissociation constant (Kd) with mouse IgG (mouse) stood at 0.4 pM. In experiment [2], `O=C(O)c1cc(O)c2c(c1)C(=O)c1cccc(O)c1C2=O` [Rhein, rhein] came in with a dissociation constant (Kd) of 33.6 µM. Regarding `O=C[C@H](O)[C@@H](O)[C@@H](O)[C@H](O)CO` [Galactose, galactose], the Kd in experiment [3] stood at 3.5 µM. On the same count and under the same terms, under `OC[C@H]1O[C@@H](O[C@H]2[C@H](O)[C@@H](O)C(O)O[C@@H]2CO)[C@H](O)[C@@H](O)[C@H]1O` (mixture of isomers) [Lactose, lactose] stands 88 µM; under `OC[C@H]1OC(O)[C@H](O)[C@@H](O)[C@@H]1O` (stereo partly drawn) [Glucose, glucose], 36 µM.
